The values below come from US20040063685A1, “Combination Drugs” (priority 2000, published 2004).

The conditions of data set [1]: crystals.
For another data set, the system named is E. coli O111 strain. Put plainly: Survival of mice intraperitoneally inoculated with E. coli O111, combined use with ceftazidime. Particulars: FIG. 1. Type of data set: in vivo. As to the method:
The E. coli O111 strain was suspended in 5% mucin, and 0.5 ml thereof was intraperitoneally inoculated to mice (BALB/c, male, 5-week-old) (9×10^4 CFU per mouse). At 1 hr after inoculation, an antibacterial agent, ceftazidime (CAZ, 12.5 μg/kg) was administered subcutaneously, and compound 29 (test compound 30 mg/kg) of Reference Example B65 suspended in a 0.5% methyl cellulose (MC) solution was simultaneously administered orally.

As to `CCOC(=O)C1=CCCCC1S(=O)(=O)Nc1ccc(F)cc1Cl` (stereo not drawn) [crystals of compound B, d-ethyl 6-[N-(2-chloro-4-fluorophenyl)sulfamoyl]-1-cyclohexene-1-carboxylate], the hygroscopicity result in data set [1] is “low”.

For the compound `CCOC(=O)C1=CCCCC1S(=O)(=O)Nc1ccc(F)cc1Cl` (stereo not drawn) [compound 29, ethyl 6-[N-(2-chloro-4-fluorophenyl)sulfamoyl]-1-cyclohexene-1-carboxylate], in the data set on E. coli O111 strain (combined use: compound 29 30 mg/kg orally (0.5% methyl cellulose) and ceftazidime (CAZ) 12.5 μg/kg subcutaneously at 1 hr after inoculation, BALB/c male mice, 9×10^4 CFU per mouse, monitored for a week), the survival rate result is “remarkably increases”. Besides, the “effectiveness of test compound alone (survival)” value in the data set with E. coli O111 strain (compound 29 30 mg/kg orally without ceftazidime, BALB/c mice infected with E. coli O111) is “low effectiveness”.
